How the values were obtained:
Experiment in all cases: bio-layer interferometry, dilution series on biotinylated recombinant enzyme
Format in all cases: binding
[1] = biological target: T1, RmlB (dTDP‐glucose‐4,6‐dehydratase) (Streptococcus pyogenes, UniProt Q9A045)
T1 construct: gene cpsFQ

[2] = biological target: T2, RmlC (dTDP‐4‐keto‐6‐deoxyglucose‐3,5‐epimerase) (Streptococcus pyogenes, UniProt Q5XCG7)
T2 construct: gene rfbC

[3] = biological target: GacA (RmlD, dTDP‐4‐dehydrorhamnose reductase) (Streptococcus pyogenes, UniProt Q9A0G6)
Sequence of GacA (RmlD, dTDP‐4‐dehydrorhamnose reductase) (Q9A0G6 entry or part of it): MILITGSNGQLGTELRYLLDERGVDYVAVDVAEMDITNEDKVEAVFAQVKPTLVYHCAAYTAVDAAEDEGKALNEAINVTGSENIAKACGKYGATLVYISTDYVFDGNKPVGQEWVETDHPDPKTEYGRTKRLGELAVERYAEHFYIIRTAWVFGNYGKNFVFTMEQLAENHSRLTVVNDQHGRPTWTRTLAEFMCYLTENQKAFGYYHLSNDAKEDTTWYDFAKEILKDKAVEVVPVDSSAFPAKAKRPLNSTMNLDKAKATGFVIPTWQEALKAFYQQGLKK

T1 sequence (Q9A045 entry or part of it): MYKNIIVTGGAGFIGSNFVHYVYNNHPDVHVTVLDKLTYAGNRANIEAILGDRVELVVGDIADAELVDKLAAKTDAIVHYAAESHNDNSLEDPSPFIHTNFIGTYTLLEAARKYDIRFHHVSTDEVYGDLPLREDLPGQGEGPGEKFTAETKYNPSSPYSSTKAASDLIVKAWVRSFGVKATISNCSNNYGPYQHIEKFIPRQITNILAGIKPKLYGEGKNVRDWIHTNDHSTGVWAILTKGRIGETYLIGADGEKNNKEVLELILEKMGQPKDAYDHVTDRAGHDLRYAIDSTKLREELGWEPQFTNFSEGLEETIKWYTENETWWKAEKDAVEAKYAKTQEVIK
T2 sequence (Q5XCG7 whole entry): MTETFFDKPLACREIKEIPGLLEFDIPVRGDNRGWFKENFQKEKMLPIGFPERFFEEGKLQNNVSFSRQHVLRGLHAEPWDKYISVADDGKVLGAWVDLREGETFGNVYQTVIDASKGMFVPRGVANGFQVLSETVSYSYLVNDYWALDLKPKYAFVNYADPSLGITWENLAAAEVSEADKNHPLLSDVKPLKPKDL

SMILES: O=C(O)c1ccc(-c2ccc(Cl)cc2)o1 [Ri03, 5‐(4‐chlorophenyl)‐2‐furoic acid]
- Kd [1]: 200 µM
- Kd [2]: ~3000 µM
- Kd [3]: 300 µM

From paper PMC6487966, “Streptococcal dTDP‐L‐rhamnose biosynthesis enzymes: functional characterization and lead compound identification” (Molecular Microbiology, 2019)
